According to patent US7579338B2, “Methods and compositions for treating atheroma, tumors and other neoplastic tissues” (Pharmacyclics, Inc., priority 1999, dated 2009):

What was measured:
[1] = Production of H2O2 in the presence of ascorbate (colorimetric); format: biochemical; settings: ascorbate plus GdTex, over the time interval of 75 to 200 minutes
Procedure: In this example, the following stock solutions were prepared: • Stock ascorbic acid (Sigma A 5960) (prepared fresh): 9.98 mg/(10 mL×176.12 mg/mmol)=5.67 mM • Stock GdTex: 5.76 mg/(10.0 mL water×1148 mg/mmol)=502 μM • Stock 4× Buffer: 200 mM HEPES, pH 7.5; 400 mM NaCl These were combined to form the reaction mixture: 200 μL 4× Buffer, 39 μL ascorbic acid Stock, 517.3 μL Water, 43.7 μL GdTex Stock. The reaction mixture was analyzed for hydrogen peroxide as indicated above. As a control, a solution in which complex was not added was prepared as above, with suitable adjustment of the volume of water, and analyzed concurrently.
Measurements of the absorbance at 560 nm (with appropriate subtraction of the background absorbance of the reagent at this wavelength) were made of samples taken at the various timepoints. It was noted that the control solution gave a uniform background absorbance which was similar at all time points, whereas the mixture containing GdTex gave an increasing amount of absorbance over time. (Sugars are known to produce high background absorbance in this assay, see manufacturers insert for details.)

[2] = system: MES-SA human uterine cells; experiment: Proliferation of BSO-treated MES-SA cells with Antimycins A and GdTex (MTT); format: cell-based; settings: BSO pre-treated cells, Antimycins A 0 to 20 μM, GdTex up to 100 μM, 20 h
Procedure: The proliferation of MES-SA human uterine cells grown in McCoys SA medium in the presence of the thiol depleting agent BSO, with varying concentrations of a mitochondrial inhibitor (Antimycins A) and GdTex was used to assess the combined effect of these agents.
Materials and Methods. MES-SA cells were incubated at 37° C. and allowed to adhere to 96-well microtiter plates (2000 cells per well) overnight in 180 μL McCoys 5A containing 10% FBS (Gibco-BRL) and ca. 2% penicillin/streptomycin solution (Sigma). BSO (20 μL) was added to all wells followed by incubation for a further 24 h. The medium was exchanged and Antimycins A was serially diluted at concentrations ranging from 0 to 20 μM and after 0.5 hr metallotexaphyrin complex (up to 100 μM) was added to the test wells to give a final volume of 200 μL, followed by incubation for 20 h, whereupon the medium was exchanged and the plates were incubated an additional 52 h prior to analysis for viability using the MTT assay.

[3] = Oxidation of ascorbate under approximate physiologic conditions (UV-vis, 266 nm); format: biochemical
Procedure: • Stock ascorbic acid (Sigma A 5960) (prepared fresh): 8.82 mg/(25 mL 176.1 mg/mmol)=2.00 mM • Stock GdTex: 5.72 mg/(10.0 mL water. 1148 mg/mmol)=498 μM • Stock 4× Buffer: 200 mM HEPES, pH 7.5; 400 mM NaCl The stock solutions were prepared using ACS grade water (Aldrich 32,007-2). 4× buffer was prepared using NaCl 99.999% (Aldrich 20,443-9), HEPES (Gibco-BRL 11344-025), and sodium hydroxide 99.99% (Aldrich 30,657-6), and was treated with Chelex® 100 (BioRad 143-2832) prior to use to remove trace iron contaminants. These were combined to form the reaction mixture analyzed by UV-vis spectroscopy: 400 μL 4× Buffer, 200 μL Ascorbic Acid Stock, 979.9 μL Water, 20.1 μL GdTex Stock.
In brief, a reaction mixture was prepared containing ascorbate, buffer, and water. A lesser amount of texaphyrin catalyst, eg., 0.025 molar equivalent, was added to this reaction mixture, vortexed briefly, and placed in a quartz cuvette (0.2, 0.5, 1.0, 2.0, 5.0, or 10 mm path length as needed to give ca. 1.8 absorbance reading at 266 nm). The cuvette was placed in a UV-vis spectrophotometer and the absorbance was read every 60 seconds for ten minutes. The absorbance at 266 nm plotted against time initially gaive a straight line. The slope of initial time points (eg., plotting as M concentration vs time in minutes) provided a rate which was used as a point in a saturation (Michaelis-Menton) plot. This process was repeated at various concentrations of ascorbate. A background rate of ascorbate oxidation was also measured at each concentration of ascorbate using this procedure without GdTex catalyst. The resulting background rate of oxidation was subtracted from the rate of oxidation in the presence of catalyst.
2B. […] 2C. […] 2D. By following the procedure of Example 2A, using an initial ascorbate concentration of 1.23 mM and a texaphyrin concentration of 61.5 μM, the results summarized in below in Table 1 were obtained.

animal tumor models = settings: reported in the literature; cited from earlier work
MES-SA cells = experiment: Response of MES-SA cells to ionizing radiation, microtiter plate format (MTT); format: cell-based, human
Procedure: The response of MES-SA cells to ionizing radiation was studied using the microtiter plate format to confirm radiation sensitization potential. This assay is used to assess rapidly the effects of irradiation under a variety of conditions.
10A. Materials and Methods. MES-SA cells were incubated at 37° C. and allowed to adhere to 96-well microtiter plates (1000 cells per well) overnight in 160 μL McCoys 5A containing 10% FBS (Gibco-BRL) and ca. 2% penicillin/streptomycin solution (Sigma). BSO or media (20 μL) was added, respectively to test and control wells, 24 h prior to irradiation. Metallotexaphyrin complex (up to 100 μM) was added to the test wells to give a final volume of 200 μL, 18-24 h prior to irradiation. Plates were irradiated using a 137Cs irradiator (Model 40 Gammacell, J. L. Shepherd & Assoc., San Fernando, Calif.) at a dose rate of 33.25 Rad/min. A lead brick (2″ diameter) was positioned to protect a column of wells (no. 11) from ionizing radiation. Plate absorbances were normalized to shielded wells to allow plate-to-plate comparison. […] Reversing the position of texaphyrin complex-containing wells had no effect on assay outcome. Medium was exchanged immediately after irradiation, and plates were incubated an additional 120 h prior to analysis for viability using the MTT assay (as described, e.g., in Example 5).

Row | Compound | H2O2 produced [1] | combined effect of GdTex and Antimycins A on cell growth [2] | kcat (first-order rate constant for the catalyst), ascorbate oxidation ([3]; substrate ascorbate, pH 7.5, background subtracted) [s⁻¹] | Km ([3]; substrate ascorbate, pH 7.5, background subtracted, read-out: KM (dissociation or Michaelis constant), ascorbate oxidation) [µM] | radiation sensitization in animal tumor models (animal tumor models) | radiation sensitization (MES-SA cells; 100 μM GdTex, no BSO (FIG. 17A)) | effect on apparent viability after irradiation with BSO (MES-SA cells; all cells pre-incubated with 100 μM BSO (FIG. 17B)) | effect on apparent viability after irradiation (MES-SA cells; up to 50 μM GdTex for 24 h prior to irradiation, no BSO, adjusted for GdTex alone (FIG. 17A)) | ascorbate oxidation (in words) ([3]; procedure of Example 2A, compared with motexafin gadolinium) | radiation sensitization, texaphyrin substituted for GdTex (MES-SA cells; corresponding experiments, Example 10B)
1 | CC(=O)[O-].CC(=O)[O-].CCc1c(CC)c2cc3nc(cnc4cc(OCCOCCOCCOC)c(OCCOCCOCCOC)cc4ncc4nc(cc1[n-]2)C(CCCO)=C4C)C(C)=C3CCCO.O.[Gd+3] [GdTex, motexafin gadolinium] | approximately 35 μM | increase in the cytotoxic dose response of the cells towards Antimycins A | 0.00583 | 1060 | enhance the efficacy of radiation | Radiation sensitization became more significant | greater GdTex-dependent decrease in apparent viability | small effect on apparent viability | – | –
2 | CC(=O)[O-].CC(=O)[O-].CCc1c(CC)c2cc3nc(cnc4cc(OCCOCCOCCOC)c(OCCOCCOCCOC)cc4ncc4nc(cc1[n-]2)C(CCCO)=C4C)C(C)=C3CCCO.O.[Lu+3] [LuTex, motexafin lutetium] | – | – | – | – | did not possess similar radiation sensitization properties | – | – | – | to a lesser extent than in the presence of motexafin gadolinium | sensitization was not obtained
